Experimental data taken from article PMC11378028 (RSC Advances, 2024).
≈ marks a conversion by molar mass, not a printed value.

Tests used:
E. coli DNA gyrase = E. coli DNA gyrase (Escherichia coli, UniProt P0AES6); experiment: DNA gyrase supercoiling plate assay; type: biochemical; conditions: IC50 E. coli gyrase, supercoiling assay
S. aureus DNA gyrase = S. aureus DNA gyrase (Staphylococcus aureus, UniProt P0A0K8); experiment: DNA gyrase supercoiling plate assay; type: biochemical; conditions: read-out: RA (residual activity) S. aureus gyrase
E. coli topoisomerase IV = E. coli topoisomerase IV (Escherichia coli, UniProt P20083); experiment: topoisomerase IV relaxation plate assay; type: biochemical
[1] = molecular target: S. aureus topoisomerase IV (Staphylococcus aureus, UniProt P0C1S7); experiment: topoisomerase IV relaxation plate assay; type: biochemical; conditions: read-out: RA (residual activity) S. aureus topo IV
S. aureus ATCC 29213 [2] = experiment: MIC, broth microdilution; type: cell-based, Staphylococcus aureus; conditions: for MIC: Staphylococcus aureus, ATCC29213, read-out: MIC S. aureus ATCC 29213, broth microdilution
E. faecium ATCC 35667 = experiment: MIC, broth microdilution; type: cell-based
E. coli ATCC 25922 = experiment: MIC, broth microdilution; type: cell-based; conditions: Escherichia coli, ATCC25922, read-out: MIC E. coli ATCC 25922
P. aeruginosa ATCC 27853 = experiment: MIC, broth microdilution; type: cell-based; conditions: Pseudomonas aeruginosa, ATCC27853, read-out: MIC P. aeruginosa ATCC 27853
A. baumannii ATCC 19606 = experiment: MIC, broth microdilution; type: cell-based; conditions: Acinetobacter baumannii, ATCC19606, read-out: MIC A. baumannii ATCC 19606
[3] = system: K. pneumoniae ATCC 700603; experiment: MIC, broth microdilution; type: cell-based; conditions: Klebsiella pneumoniae, ATCC700603, read-out: MIC K. pneumoniae ATCC 700603
K. aerogenes ATCC 13408 = experiment: MIC, broth microdilution; type: cell-based; conditions: Klebsiella aerogenes, ATCC13408, read-out: MIC K. aerogenes ATCC 13408
[4] = molecular target: human DNA topoisomerase IIα (Homo sapiens, UniProt P11388); experiment: human DNA topoisomerase IIα inhibition; type: biochemical
A. baumannii DNA gyrase = A. baumannii DNA gyrase (Acinetobacter baumannii, UniProt A0ABX6CA01); experiment: DNA gyrase supercoiling assay; type: biochemical
P. aeruginosa DNA gyrase = P. aeruginosa DNA gyrase (Pseudomonas aeruginosa, UniProt Q9I7C2); experiment: DNA gyrase supercoiling assay; type: biochemical
[5] = system: S. aureus ATCC 43300 (MRSA); experiment: MIC, broth microdilution; type: cell-based; conditions: Staphylococcus aureus, ATCC43300|MRSA, read-out: MIC S. aureus ATCC 43300 (MRSA)
E. faecalis ATCC 29212 = experiment: MIC, broth microdilution; type: cell-based; conditions: Enterococcus faecalis, ATCC29212, read-out: MIC E. faecalis ATCC 29212
K. pneumoniae ATCC 10031 [6] = experiment: MIC, broth microdilution; type: cell-based; conditions: Klebsiella pneumoniae, ATCC10031, read-out: MIC K. pneumoniae ATCC 10031
[7] = system: E. spp. cloacae ATCC 13047; experiment: MIC, broth microdilution; type: cell-based; conditions: read-out: MIC E. spp. cloacae ATCC 13047
MRSA clinical isolate-1 = experiment: MIC against fluoroquinolone-resistant clinical isolate; type: cell-based; conditions: Staphylococcus aureus, read-out: MIC MRSA clinical isolate-1
MRSA clinical isolate-2 = experiment: as above; type: cell-based; conditions: Staphylococcus aureus, read-out: MIC MRSA clinical isolate-2
K. pneumoniae NCTC 13440 = experiment: as above; type: cell-based; conditions: Klebsiella pneumoniae, NCTC13440, read-out: MIC K. pneumoniae NCTC 13440
K. pneumoniae SE K14 = experiment: as above; type: cell-based; conditions: Klebsiella pneumoniae, SEK14, read-out: MIC K. pneumoniae SE K14
K. pneumoniae K9–K25 = experiment: as above; type: cell-based; conditions: Klebsiella pneumoniae, read-out: MIC K. pneumoniae K9–K25
K. pneumoniae SE K13 = experiment: as above; type: cell-based; conditions: Klebsiella pneumoniae, SEK13, read-out: MIC K. pneumoniae SE K13
S. aureus ATCC 29213 [8] = experiment: spontaneous frequency of resistance; type: cell-based, Staphylococcus aureus
K. pneumoniae ATCC 10031 [9] = experiment: spontaneous frequency of resistance; type: cell-based, Klebsiella pneumoniae
[10] = system: S. aureus ATCC 29213 adapted lines; experiment: MIC of adapted lines; conditions: colonies from frequency of resistance plates
[11] = read-out: RA (residual activity) Human topo IIα

Chain of E. coli topoisomerase IV (P20083 whole entry): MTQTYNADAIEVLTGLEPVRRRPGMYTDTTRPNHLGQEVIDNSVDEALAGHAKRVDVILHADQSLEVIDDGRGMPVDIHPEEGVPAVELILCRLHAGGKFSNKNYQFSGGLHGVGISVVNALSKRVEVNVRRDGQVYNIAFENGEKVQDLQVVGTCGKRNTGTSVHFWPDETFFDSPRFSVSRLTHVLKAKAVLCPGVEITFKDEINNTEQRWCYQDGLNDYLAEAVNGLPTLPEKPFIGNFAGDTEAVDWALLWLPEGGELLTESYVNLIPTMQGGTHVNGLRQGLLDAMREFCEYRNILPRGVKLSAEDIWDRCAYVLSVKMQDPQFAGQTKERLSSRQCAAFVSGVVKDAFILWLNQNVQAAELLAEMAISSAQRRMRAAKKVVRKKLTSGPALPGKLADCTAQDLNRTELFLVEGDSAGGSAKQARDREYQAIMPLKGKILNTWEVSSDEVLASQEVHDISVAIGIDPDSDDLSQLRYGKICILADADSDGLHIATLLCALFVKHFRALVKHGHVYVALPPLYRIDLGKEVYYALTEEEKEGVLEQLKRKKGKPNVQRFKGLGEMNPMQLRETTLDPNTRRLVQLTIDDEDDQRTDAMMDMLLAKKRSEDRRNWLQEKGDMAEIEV
Chain of E. coli topoisomerase IV (P0AFI2 whole entry partner): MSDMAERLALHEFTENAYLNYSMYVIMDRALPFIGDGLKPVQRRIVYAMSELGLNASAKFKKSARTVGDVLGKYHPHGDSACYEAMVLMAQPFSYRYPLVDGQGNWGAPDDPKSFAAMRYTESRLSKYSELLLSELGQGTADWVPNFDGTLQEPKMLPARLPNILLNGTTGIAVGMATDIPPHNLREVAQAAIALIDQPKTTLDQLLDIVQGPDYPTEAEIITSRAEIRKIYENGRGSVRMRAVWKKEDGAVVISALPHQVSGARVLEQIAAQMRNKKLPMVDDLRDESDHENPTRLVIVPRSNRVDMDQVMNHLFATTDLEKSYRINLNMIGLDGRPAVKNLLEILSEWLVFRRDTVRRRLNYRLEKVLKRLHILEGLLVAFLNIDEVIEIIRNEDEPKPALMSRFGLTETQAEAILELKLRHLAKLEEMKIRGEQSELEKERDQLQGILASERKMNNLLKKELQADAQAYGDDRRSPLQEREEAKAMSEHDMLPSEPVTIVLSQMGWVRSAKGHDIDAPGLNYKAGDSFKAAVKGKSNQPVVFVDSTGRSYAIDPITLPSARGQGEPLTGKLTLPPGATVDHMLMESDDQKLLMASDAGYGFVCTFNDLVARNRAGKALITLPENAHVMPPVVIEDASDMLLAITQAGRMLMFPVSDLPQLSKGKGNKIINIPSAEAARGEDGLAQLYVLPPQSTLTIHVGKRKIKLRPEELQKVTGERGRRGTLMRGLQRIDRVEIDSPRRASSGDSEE
Chain of human DNA topoisomerase IIα (P11388 whole entry): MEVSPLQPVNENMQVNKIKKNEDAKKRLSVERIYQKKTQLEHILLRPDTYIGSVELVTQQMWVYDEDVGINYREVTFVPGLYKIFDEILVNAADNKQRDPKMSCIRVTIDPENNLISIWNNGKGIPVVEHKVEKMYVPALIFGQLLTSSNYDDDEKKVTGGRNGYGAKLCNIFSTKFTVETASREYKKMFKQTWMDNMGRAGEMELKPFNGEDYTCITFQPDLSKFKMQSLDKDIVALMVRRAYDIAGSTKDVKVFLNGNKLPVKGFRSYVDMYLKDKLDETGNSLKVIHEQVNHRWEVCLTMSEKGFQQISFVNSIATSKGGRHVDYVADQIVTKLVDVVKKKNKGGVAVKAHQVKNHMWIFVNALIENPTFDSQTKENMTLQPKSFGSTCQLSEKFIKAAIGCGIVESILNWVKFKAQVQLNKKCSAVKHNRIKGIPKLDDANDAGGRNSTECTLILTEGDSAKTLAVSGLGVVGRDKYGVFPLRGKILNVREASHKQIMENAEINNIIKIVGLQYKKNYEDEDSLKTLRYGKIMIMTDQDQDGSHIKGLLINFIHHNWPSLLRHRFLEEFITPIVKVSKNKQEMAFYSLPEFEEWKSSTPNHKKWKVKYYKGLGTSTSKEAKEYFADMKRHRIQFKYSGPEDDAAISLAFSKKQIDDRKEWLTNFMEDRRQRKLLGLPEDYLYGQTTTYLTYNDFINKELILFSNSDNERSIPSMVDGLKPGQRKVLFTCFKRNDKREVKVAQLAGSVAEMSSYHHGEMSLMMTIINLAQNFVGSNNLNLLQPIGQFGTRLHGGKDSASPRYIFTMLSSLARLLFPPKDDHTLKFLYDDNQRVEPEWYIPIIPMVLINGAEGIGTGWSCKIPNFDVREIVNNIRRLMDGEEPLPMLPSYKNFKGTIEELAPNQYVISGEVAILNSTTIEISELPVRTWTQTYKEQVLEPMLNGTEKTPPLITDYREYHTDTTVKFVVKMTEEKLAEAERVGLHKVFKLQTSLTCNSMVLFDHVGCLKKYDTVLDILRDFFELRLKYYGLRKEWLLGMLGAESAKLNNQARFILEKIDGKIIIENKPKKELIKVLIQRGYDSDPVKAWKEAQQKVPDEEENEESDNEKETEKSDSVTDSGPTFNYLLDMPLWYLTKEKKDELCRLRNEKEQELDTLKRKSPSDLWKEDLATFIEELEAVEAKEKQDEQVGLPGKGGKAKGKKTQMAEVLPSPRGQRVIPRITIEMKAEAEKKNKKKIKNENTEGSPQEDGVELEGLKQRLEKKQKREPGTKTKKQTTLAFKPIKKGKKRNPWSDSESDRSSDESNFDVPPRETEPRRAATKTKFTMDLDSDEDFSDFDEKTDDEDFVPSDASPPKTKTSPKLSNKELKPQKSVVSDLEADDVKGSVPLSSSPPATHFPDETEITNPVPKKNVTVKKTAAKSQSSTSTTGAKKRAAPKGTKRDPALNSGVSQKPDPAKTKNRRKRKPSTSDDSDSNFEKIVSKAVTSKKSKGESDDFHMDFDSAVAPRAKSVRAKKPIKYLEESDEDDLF
Chain of S. aureus DNA gyrase (P0A0K8 whole entry): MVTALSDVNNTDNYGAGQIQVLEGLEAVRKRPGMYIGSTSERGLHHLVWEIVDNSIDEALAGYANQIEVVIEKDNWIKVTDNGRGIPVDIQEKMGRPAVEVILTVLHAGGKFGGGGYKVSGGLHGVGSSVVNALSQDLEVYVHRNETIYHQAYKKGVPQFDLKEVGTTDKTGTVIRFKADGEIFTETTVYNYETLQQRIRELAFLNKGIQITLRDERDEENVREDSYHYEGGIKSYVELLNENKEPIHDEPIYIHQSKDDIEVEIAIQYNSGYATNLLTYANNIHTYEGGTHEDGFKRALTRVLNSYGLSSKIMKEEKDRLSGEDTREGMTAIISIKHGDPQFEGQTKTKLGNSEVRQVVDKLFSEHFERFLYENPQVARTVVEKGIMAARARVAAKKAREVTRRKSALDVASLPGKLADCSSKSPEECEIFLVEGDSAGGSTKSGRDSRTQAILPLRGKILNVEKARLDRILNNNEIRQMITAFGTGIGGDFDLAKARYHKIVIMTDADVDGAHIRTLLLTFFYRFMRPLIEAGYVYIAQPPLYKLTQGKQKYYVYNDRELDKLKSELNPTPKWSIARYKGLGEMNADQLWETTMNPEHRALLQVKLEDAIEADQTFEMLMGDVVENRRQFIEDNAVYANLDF
Chain of S. aureus DNA gyrase (P20831 whole entry partner): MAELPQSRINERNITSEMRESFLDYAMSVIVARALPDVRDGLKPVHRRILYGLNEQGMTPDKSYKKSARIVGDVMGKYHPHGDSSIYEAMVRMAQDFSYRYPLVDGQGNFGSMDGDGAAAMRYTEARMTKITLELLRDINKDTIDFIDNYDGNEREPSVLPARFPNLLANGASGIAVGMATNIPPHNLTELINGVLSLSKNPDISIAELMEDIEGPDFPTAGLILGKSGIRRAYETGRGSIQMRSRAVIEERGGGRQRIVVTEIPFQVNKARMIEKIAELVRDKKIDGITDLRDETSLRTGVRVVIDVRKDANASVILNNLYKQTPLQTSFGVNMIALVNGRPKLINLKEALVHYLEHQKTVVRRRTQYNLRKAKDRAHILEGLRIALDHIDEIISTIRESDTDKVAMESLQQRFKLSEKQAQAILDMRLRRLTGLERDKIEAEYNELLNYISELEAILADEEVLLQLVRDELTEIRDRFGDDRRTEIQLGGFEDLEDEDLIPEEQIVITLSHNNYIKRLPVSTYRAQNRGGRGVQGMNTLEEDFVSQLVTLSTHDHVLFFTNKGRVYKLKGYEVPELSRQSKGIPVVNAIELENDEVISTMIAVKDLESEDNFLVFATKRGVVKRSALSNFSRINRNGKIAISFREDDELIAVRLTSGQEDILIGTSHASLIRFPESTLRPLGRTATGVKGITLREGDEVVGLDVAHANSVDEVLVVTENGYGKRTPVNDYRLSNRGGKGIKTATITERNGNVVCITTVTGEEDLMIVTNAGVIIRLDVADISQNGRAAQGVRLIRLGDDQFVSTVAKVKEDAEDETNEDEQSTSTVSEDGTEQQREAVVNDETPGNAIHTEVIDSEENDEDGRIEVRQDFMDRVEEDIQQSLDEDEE

Structure (SMILES): Cc1[nH]c(C(=O)Nc2ccc(C(=O)O)cc2N2CCN(C(=O)OC(C)(C)C)CC2)c(Cl)c1Cl [Compound 18a, 3-(4-(tert-Butoxycarbonyl)piperazin-1-yl)-4-(3,4-dichloro-5-methyl-1H-pyrrole-2-carboxamido)benzoic acid]
- IC50 (E. coli DNA gyrase): 159 nM
- remaining activity at 1 µM (S. aureus DNA gyrase): 54%
- remaining activity at 1 µM (E. coli topoisomerase IV; read-out: RA (residual activity) E. coli topo IV): 99%
- remaining activity at 1 µM [1]: 21%
- MIC (S. aureus ATCC 29213 [2]): 4 to 32 µg/mL (≈ 8.04 to 64.3 µM)
- MIC S. aureus ATCC 29213 (S. aureus ATCC 29213 [2]; broth microdilution): 4 µg/mL (≈ 8.04 µM)
- MIC E. faecium ATCC 35667 (E. faecium ATCC 35667): 16 µg/mL (≈ 32.2 µM)
- MIC (E. coli ATCC 25922): > 32 µg/mL
- MIC (P. aeruginosa ATCC 27853): > 32 µg/mL
- MIC (A. baumannii ATCC 19606): > 32 µg/mL
- MIC [3]: > 32 µg/mL
- MIC (K. aerogenes ATCC 13408): > 32 µg/mL

Structure (SMILES): Cc1[nH]c(C(=O)Nc2ccc(C(=O)O)cc2N2CCCC(CN)C2)c(Cl)c1Cl.Cl (stereo not shown) [Compound 20i, (1-(5-Carboxy-2-(3,4-dichloro-5-methyl-1H-pyrrole-2-carboxamido)phenyl)piperidin-3-yl)methanaminium chloride]
- IC50 (E. coli DNA gyrase): 6.34 nM
- remaining activity at 0.1 µM (S. aureus DNA gyrase): 28%
- IC50 (E. coli topoisomerase IV): 143 nM
- remaining activity at 1 µM [1]: 0%
- remaining activity at 100 µM [4, 11]: 28%
- MIC E. faecium ATCC 35667 (E. faecium ATCC 35667): 32 µg/mL
- MIC (E. coli ATCC 25922): > 32 µg/mL
- MIC (P. aeruginosa ATCC 27853): > 32 µg/mL
- MIC (A. baumannii ATCC 19606): > 32 µg/mL
- MIC [3]: > 32 µg/mL
- MIC (K. aerogenes ATCC 13408): > 32 µg/mL

Structure (SMILES): Cc1[nH]c(C(=O)Nc2ccc(-c3n[nH]c(=O)o3)cc2N2CC[C@H](N)C2)c(Cl)c1Cl.Cl [Compound 23b, (S)-1-(2-(3,4-Dichloro-5-methyl-1H-pyrrole-2-carboxamido)-5-(5-oxo-4,5-dihydro-1,3,4-oxadiazol-2-yl)phenyl)pyrrolidin-3-aminium chloride]
- IC50 [4]: 86300 nM
- IC50 (A. baumannii DNA gyrase): 15.3 nM
- IC50 (P. aeruginosa DNA gyrase): 3.63 nM
- MIC (S. aureus ATCC 29213 [2]): 1 µg/mL
- MIC [5]: 2 µg/mL
- MIC (E. faecalis ATCC 29212): 1 µg/mL
- MIC (P. aeruginosa ATCC 27853): 32 µg/mL
- MIC (K. pneumoniae ATCC 10031 [6]): 0.0625 µg/mL
- MIC [3]: > 32 µg/mL
- MIC [7]: 32 µg/mL
- MIC (K. aerogenes ATCC 13408): > 32 µg/mL
- MIC (MRSA clinical isolate-1): 4 µg/mL
- MIC (MRSA clinical isolate-2): 2 µg/mL
- MIC (K. pneumoniae NCTC 13440): > 64 µg/mL
- MIC (K. pneumoniae SE K14): > 64 µg/mL
- MIC (K. pneumoniae K9–K25): > 64 µg/mL

Structure (SMILES): Cc1[nH]c(C(=O)Nc2ccc(-c3n[nH]c(=O)o3)cc2N2CCC[C@H](N)C2)c(Cl)c1Cl.Cl [Compound 23c, (S)-1-(2-(3,4-Dichloro-5-methyl-1H-pyrrole-2-carboxamido)-5-(5-oxo-4,5-dihydro-1,3,4-oxadiazol-2-yl)phenyl)piperidin-3-aminium chloride]
- IC50 (E. coli topoisomerase IV): 448 nM
- remaining activity at 50 µM [4, 11]: 90%
- MIC (S. aureus ATCC 29213 [2]): 2 µg/mL
- MIC [5]: 2 µg/mL
- MIC (E. faecalis ATCC 29212): 2 µg/mL
- MIC (A. baumannii ATCC 19606): 4 µg/mL
- MIC (K. pneumoniae ATCC 10031 [6]): 0.25 µg/mL
- MIC [3]: > 32 µg/mL
- MIC [7]: > 64 µg/mL
- MIC (K. aerogenes ATCC 13408): > 32 µg/mL
- MIC (MRSA clinical isolate-1): 4 µg/mL
- MIC (MRSA clinical isolate-2): 2 µg/mL
- MIC (K. pneumoniae NCTC 13440): > 64 µg/mL
- MIC (K. pneumoniae SE K13): 32 µg/mL
- MIC (K. pneumoniae SE K14): > 64 µg/mL
- MIC (K. pneumoniae K9–K25): > 64 µg/mL
- resistance-proneness compared to novobiocin (S. aureus ATCC 29213 [8]): significantly less resistance-prone compared to novobiocin
- resistance-proneness compared to novobiocin (K. pneumoniae ATCC 10031 [9]): significantly less resistance-prone compared to novobiocin
- change in MIC values compared to the ancestor [10]: 4 fold
